Test results taken from article PMC9131871, “Impact of Micropolymorphism Outside the Peptide Binding Groove in the Clinically Relevant Allele HLA-C*14 on T Cell Responses in HIV-1 Infection” (Journal of Virology, 2022).

target: HLA-C*14:02 (Homo sapiens, UniProt P10321, A176E/A330V/A35S/A97T/C350S/D114A/D33S/L171W/L180R/L218V/M285V/M309V/M331V/P208H/Q277E/Q291P/R121W/R243W/S123F/S297R/S48A/T329A/T363A/V319A); assay: HLA stabilization assay on RMA-S-C1402 cells; format: cell-based; conditions: 100 μM peptide, 26°C 1 h then 37°C 3 h, MAb DT-9 staining, flow cytometry, triplicate assays
Description: We next sought to confirm the HLA-C*14:02/C*14:03 restriction of the HIV-1 peptides identified by LC-MS/MS. First, we tested their ability to bind to HLA-C*14:02 or HLA-C*14:03 using HLA stabilization assays. Of the 25 HIV-1 peptides, three Env peptides, Env SI8, Env AM11, and Env VM9, are located in variable regions V2 and V3. In addition, Pol AF10, Pol PF8, Pol VWL9, and Env YI9 are located in regions where high sequence variation is reported in the LANL database. Therefore, we excluded these peptides from further analysis. The other 18 peptides were synthesized and tested for binding to HLA-C*14:02/C*14:03 by analyzing their ability to stabilize surface HLA expression on TAP-defective RMA-S cell lines expressing HLA-C*14:02 (RMA-S-C1402) or HLA-C*14:03 (RMA-S-C1403). These RMA-S cell lines express equivalent levels of HLA-C*14:02 and HLA-C*14:03 on the cell surface at 26°C, and surface HLA expression declines to very low levels when the cells are warmed to 37°C in the absence of exogenously added stabilizing peptides (Fig. 2A). Peptide binding was determined by evaluating whether HLA-I expression was stabilized in the presence of 100 μM peptide.
FIG 2 HLA-C*14:02/14:03 binding of HIV-1 peptides eluted from NL4-3-infected .221-C1402 and .221-C1403 cells as assessed by HLA stabilization assay using RMA-S cell lines. (A) Histogram plots showing surface expression of HLA-C*14:02 or HLA-C*14:03 on RMA-S-C1402 or RMA-S-C1403 cells at 26°C and after cells cultured at 26°C had been warmed to 37°C for 3 h. MFI values of cells cultured at 26°C were 27.4 for HLA-C*14:02 and 28.1 for HLA-C*14:03. MFI values of cells cultured at 37°C for 3 h were 5.0 for HLA-C*14:02 and 6.54 for HLA-C*14:03. (B) Analysis of binding of 14 HIV-1 NL4.3 peptides identified by LC-MS/MS to HLA-C*14:02 (blue) or HLA-C*14:03 (red) as measured in HLA class I stabilization assays using RMA-S-C1402 or RMA-S-C1403 cells. (C) Analysis of binding of 9 additional variant peptides to HLA-C*14:02 (blue) or C*14:03 (red). For panels B and C, peptides were tested at a concentration of 100 μM. Results are plotted as percent surface HLA-I expression relative to that at 26°C, calculated as the ratio of the MFI of peptide-pulsed RMA-S-C1402 or RMA-S-C1403 cells to that of control (non-peptide-pulsed) cells kept at 26°C, multiplied by 100. Means and standard deviations (SDs) from triplicate assays are shown. Statistical analyses were performed by unpaired t test. The P values were corrected for multiple testing. *, P < 0.05 and q < 0.05; **, P < 0.01 and q < 0.03; ***, P < 0.001 and q < 0.005.
The relative affinity of peptide binding to HLA-C*14:02 and -C*14:03 was examined using RMA-S-C1402 and RMA-S-C1403 cells as previously described ([15]). Briefly, RMA-S cells were cultured at 26°C for 16 h, pulsed with peptides at 26°C for 1 h, and subsequently incubated at 37°C for 3 h. Staining of cell surface HLA-C molecules was performed with the HLA-C-reactive monoclonal antibody (MAb) DT-9 ([48]), a gift from Mary Carrington, NIH, and fluorescein isothiocyanate (FITC)-conjugated sheep anti-mouse IgG (Jackson ImmunoResearch). Staining data were acquired on a FACSCanto II instrument (BD Biosciences) and analyzed using FlowJo 10.7.1 software. Relative HLA expression was calculated as the ratio of the mean fluorescence intensity (MFI) of peptide-pulsed RMA-S-C1402 cells or RMA-S-C1403 cells to that of control (non-peptide-pulsed) cells kept at 26°C, multiplied by 100 to express the values for peptide-pulsed cells as a percentage of that for the control cells at 26°C.

Sequence | binding to HLA-C*14:02 (stabilization of surface HLA expression)
ASGYIEAEV [Pol AV9, HIV-1 NL4-3 Pol 795–803 peptide …] | did not exhibit detectable binding
FFREDLAF [Pol FF8, HIV-1 NL4-3 Pol 1–8 peptide FFREDLAF] | low
FLGAAGSTM [Env FM9, HIV-1 NL4-3 Env 522–530 peptide …] | did not exhibit detectable binding
FMTKALGI [Tat FI8, HIV-1 NL4-3 Tat 38–45 peptide FMTKALGI] | did not exhibit detectable binding
RFDSRLAF [Nef RF8, HIV-1 NL4-3 Nef 184–191 peptide RFDSRLAF] | did not exhibit detectable binding
VYYDPSKDL [Pol VYL9, HIV-1 NL4-3 Pol 472–480 peptide …] | low

same assay, conditions: peptide concentrations from 0.1 to 100 μM, 6 epitope peptides compared

Sequence | relative affinity in hierarchy of peptide-HLA-C*14 binding (HLA-C*14:02)
AFHHVAREL [Nef AL9] | lowest
AFSPEVIPM [Gag AM9] | highest
